We go through one compound from patent US6750025B1 (priority 1998, dated 2004).

Structures are written as SMILES. “Also recorded” adds a separate entry of the source.

The target in assay [1] is T1, streptavidin binding to Gly-Tyr-Gly-Gln-Pro-His-Gly-Gly sequence attached to resin A (Streptomyces avidinii, UniProt P22629).
T1 construct: purchased Sigma (streptavidin-phosphatase); Commonwealth Biotechnologies Inc. (peptide resin)

Assay [2] deals with streptavidin binding to the prion protein (Streptomyces avidinii, UniProt P22629).
Sequence of streptavidin binding to the prion protein (P22629 25-183 limits assumed): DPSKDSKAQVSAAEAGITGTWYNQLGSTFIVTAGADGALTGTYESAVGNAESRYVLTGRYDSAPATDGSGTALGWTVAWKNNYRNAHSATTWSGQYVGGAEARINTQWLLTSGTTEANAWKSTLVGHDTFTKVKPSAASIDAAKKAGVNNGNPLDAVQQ
The target of assay [3] is Streptavidin (Streptomyces avidinii, UniProt P22629). The settings on record: cited from earlier work.
Sequence of Streptavidin (P22629 25-183): as the sequence (P22629 25-183 limits assumed) above

T1 sequence (P22629 25-183): as the sequence (P22629 25-183 limits assumed) above

Turning to `O=C(O)CCCC[C@@H]1SC[C@@H]2NC(=O)N[C@@H]21` [D-biotin], in assay [1], the “phosphatase activity in flow through of resin A after biotin pre-incubation” value was “significant phosphatase activity; also recorded: found in the first few column volumes”. Also, the “competition with the production of signal” value in assay [2] (D-biotin added after binding of streptavidin to the proteins) was “did not compete with the production of signal”. Also, in assay [2] (streptavidin-phosphatase mixed with 10 μM D-biotin prior to addition to the Western blot), the “inhibition of banding at 30-34 kDa” value was “completely inhibited”. Moreover, in assay [3], the “affinity of streptavidin to biotin” value is given as ~10^15.
